Reference: US20130109682A1, “CYCLIC ETHER COMPOUNDS USEFUL AS KINASE INHIBITORS” (NOVARTIS AG, priority 2010, published 2013)

How the values were obtained:
[1] = biological target: PIM1 (Homo sapiens, UniProt P11309); test: KinaseGlo Pim1 ATP depletion assay; format: biochemical
In short: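 2.5 nM PIM1 preincubated 15 min with compound and 40 μM BAD peptide in 50 mM HEPES pH 7.5, 5 mM MgCl2, 1 mM DTT, 0.05% BSA, 2.5% DMSO. The reaction was started with 20 μM ATP (final) and run to about 50% ATP depletion. Remaining ATP read by KinaseGlo Plus luminescence to give IC50.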

[2] = system: KMS11 (human myeloma cell line); test: Cell proliferation assay (CellTiter-Glo), KMS11; format: cell-based; conditions: KMS11-Luc cells
Procedure: KMS11 (human myeloma cell line), were cultured in IMDM supplemented with 10% FBS, sodium pyruvate and antibiotics. Cells were plated in the same medium at a density of 2000 cells per well into 96 well tissue culture plates, with outside wells vacant, on the day of assay. MMl.s (human myeloma cell line), were cultured in RPMI1640 supplemented with 10% FBS, sodium pyruvate and antibiotics. Cells were plated in the same medium at a density of 5000 cells per well into 96 well tissue culture plates, with outside wells vacant, on the day of assay.
Test compounds supplied in DMSO were diluted into DMSO at 500 times the desired final concentrations before dilution into culture media to 2 times final concentrations. Equal volumes of 2× compounds were added to the cells in 96 well plates and incubated at 37° C. for 3 days.
After 3 days plates were equilibrated to room temperature and equal volume of CellTiter-Glow Reagent (Promega) was added to the culture wells. The plates were agitated briefly and luminescent signal was measured with luminometer.
Using the procedures of Cell Proliferation Assay, the EC50 concentration of indicated compounds of the examples in were determined in KMS11 cells as shown in Table 4.

[3] = biological target: GSK3β (Homo sapiens, UniProt P49841); test: GSK3β ATP depletion assay; format: biochemical; conditions: read-out: GSK3b IC50
In short: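 Human GSK3β (5 nM) preincubated 15 min with 10 μM biotinylated phospho-CREB peptide in pH 7.5 Tris buffer (15 mM MgCl2, 1 mM DTT, 0.1% BSA, 2.5% DMSO). Reaction started with 2 μM ATP and run to about 50% ATP depletion. Remaining ATP measured by KinaseGlo luminescence.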

[4] = biological target: PIM2 (Homo sapiens, UniProt Q9P1W9); test: KinaseGlo Pim2 ATP depletion assay; format: biochemical
In short: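 Luminescent ATP-depletion read-out of PIM2 phosphorylating BAD peptide (RSRHSSYPAGT-OH). Final conditions: 5 nM PIM2, 4 μM ATP, 10 μM peptide, 2.5% DMSO in 50 mM HEPES pH 7.5, 5 mM MgCl2, 1 mM DTT, 0.05% BSA. Enzyme–peptide preincubated 15 min with compound; reaction run to ~50% ATP depletion.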

[5] = biological target: PIM3 (Homo sapiens, UniProt Q86V86); test: KinaseGlo Pim3 ATP depletion assay; format: biochemical
In short: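 Kinase was preincubated 15 min with BAD peptide in HEPES pH 7.5/MgCl2/DTT/BSA before ATP was added. Final concentrations were 40 μM ATP, 100 μM BAD peptide and 2.5% DMSO, with 5 nM enzyme. The reaction ran to ~50% ATP depletion and remaining ATP was read by KinaseGlo Plus luminescence.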

Sequence of PIM1 (P11309 whole entry): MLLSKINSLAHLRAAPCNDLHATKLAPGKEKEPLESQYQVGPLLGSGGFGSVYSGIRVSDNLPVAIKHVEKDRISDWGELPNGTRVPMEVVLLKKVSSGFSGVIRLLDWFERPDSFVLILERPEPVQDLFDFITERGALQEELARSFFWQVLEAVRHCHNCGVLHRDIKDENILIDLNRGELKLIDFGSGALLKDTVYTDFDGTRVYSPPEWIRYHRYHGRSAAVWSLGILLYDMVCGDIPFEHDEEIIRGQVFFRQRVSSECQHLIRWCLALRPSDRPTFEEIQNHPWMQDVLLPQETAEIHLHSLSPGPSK
Sequence of PIM2 (Q9P1W9 whole entry): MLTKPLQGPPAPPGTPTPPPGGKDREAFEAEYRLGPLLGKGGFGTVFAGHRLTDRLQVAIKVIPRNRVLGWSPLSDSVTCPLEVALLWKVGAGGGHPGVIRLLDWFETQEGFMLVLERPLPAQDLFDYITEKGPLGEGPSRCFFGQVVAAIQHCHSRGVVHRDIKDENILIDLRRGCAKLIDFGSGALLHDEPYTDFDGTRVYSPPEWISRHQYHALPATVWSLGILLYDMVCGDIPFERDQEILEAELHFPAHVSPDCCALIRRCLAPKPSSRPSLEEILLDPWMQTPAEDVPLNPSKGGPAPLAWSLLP
Sequence of GSK3β (P49841 whole entry, species assumed): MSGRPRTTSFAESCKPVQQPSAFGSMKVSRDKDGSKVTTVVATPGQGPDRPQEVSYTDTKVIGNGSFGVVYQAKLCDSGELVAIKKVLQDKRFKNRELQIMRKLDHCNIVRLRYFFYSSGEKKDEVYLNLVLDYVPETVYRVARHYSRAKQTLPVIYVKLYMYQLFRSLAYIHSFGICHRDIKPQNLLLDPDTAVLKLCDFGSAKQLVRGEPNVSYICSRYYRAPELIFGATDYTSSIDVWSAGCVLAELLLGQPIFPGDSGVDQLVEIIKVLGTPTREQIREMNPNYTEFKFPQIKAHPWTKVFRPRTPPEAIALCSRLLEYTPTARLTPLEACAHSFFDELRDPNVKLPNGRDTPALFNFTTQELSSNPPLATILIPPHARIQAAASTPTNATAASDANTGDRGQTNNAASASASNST

| IC50 [1] | EC50 ([2]; Homo sapiens, KMS-11) | IC50 [3] | IC50 [4] | IC50 [5] | EC50 [2] | SMILES |
| --- | --- | --- | --- | --- | --- | --- |
| 0.012 µM | > 10 µM | 2.6 µM | 1.34 µM | 0.068 µM | – | O=C(Nc1cnccc1[C@H]1OC[C@H](CO)O1)c1ccc(F)c(-c2c(F)cccc2F)n1 [Example 101, 6-(2,6-difluorophenyl)-5-fluoro-N-(4-((2S,4S)-4-(hydroxymethyl)-1,3-dioxolan-2-yl)pyridin-3-yl)picolinamide] |
| 0.539 µM | > 10 µM | 2.67 µM | 2.78 µM | 0.951 µM | – | Nc1cnc(-c2c(F)cccc2F)nc1C(=O)Nc1cnccc1[C@@H]1C[C@H](O)[C@]2(O)CCC[C@@H]2O1 [Example 182, 5-amino-2-(2,6-difluorophenyl)-N-(4-((2S,4S,4aR,7aS)-4,4a-dihydroxyoctahydrocyclopenta[b]pyran-2-yl)pyridin-3-yl)pyrimidine-4-carboxamide] |
| 0.044 µM | > 10 µM | 1.23 µM | 4.92 µM | 0.171 µM | – | O=C(Nc1cnccc1[C@H]1C[C@@H](O)[C@H](O)[C@@H](CO)O1)c1csc(-c2c(F)cccc2F)n1 [Example 80, 2-(2,6-difluorophenyl)-N-(4-((2R,4R,5S,6R)-4,5-dihydroxy-6-(hydroxymethyl)tetrahydro-2H-pyran-2-yl)pyridin-3-yl)thiazole-4-carboxamide] |
| 0.001 µM | 4.7 µM | 1.18 µM | 0.05 µM | 0.006 µM | – | CC(C)NC(=O)c1ccc(F)c(-c2nc(C(=O)Nc3cnccc3[C@H]3C[C@@H](O)[C@](C)(O)[C@@H](C)O3)ccc2F)c1 [Example 105, N-(4-((2R,4R,5S,6R)-4,5-dihydroxy-5,6-dimethyltetrahydro-2H-pyran-2-yl)pyridin-3-yl)-5-fluoro-6-(2-fluoro-5-(isopropylcarbamoyl)phenyl)picolinamide] |
| 0.006 µM | > 10 µM | 0.2 µM | 0.041 µM | 0.008 µM | – | C=C[C@H]1OC(c2ccncc2NC(=O)c2ccnc(-c3c(F)cccc3F)n2)=C[C@@H](O)[C@@H]1O [Example 23, 2-(2,6-difluorophenyl)-N-(4-((2R,3S,4R)-3,4-dihydroxy-2-vinyl-3,4-dihydro-2H-pyran-6-yl)pyridin-3-yl)pyrimidine-4-carboxamide] |
| 0.0184 µM | – | 2.25 µM | 0.0575 µM | 0.0194 µM | > 10 µM | CC[C@H]1O[C@@H](c2ccncc2NC(=O)c2nc(-c3nccs3)ccc2N)C[C@@H](O)[C@@H]1O [Example 145, 3-amino-N-(4-((2R,4R,5S,6R)-6-ethyl-4,5-dihydroxytetrahydro-2H-pyran-2-yl)pyridin-3-yl)-6-(thiazol-2-yl)picolinamide] |
| 0.01 µM | > 10 µM | 0.759 µM | 0.678 µM | 0.4 µM | – | O=C(Nc1cnccc1[C@H]1CCCCO1)c1ccc(F)c(-c2c(F)cccc2F)n1 [Example 134, (R)-6-(2,6-difluorophenyl)-5-fluoro-N-(4-(tetrahydro-2H-pyran-2-yl)pyridin-3-yl)picolinamide] |
| 0.0386 µM | 6.83 µM | 1.06 µM | 0.171 µM | 0.162 µM | – | O=C(Nc1cnccc1[C@@H]1C[C@H](O)[C@]2(O)CCCC[C@@H]2O1)c1ccc(F)c(-c2c(F)cccc2F)n1 [Example 177, 6-(2,6-difluorophenyl)-N-(4-((2S,4S,4aR,8aS)-4,4a-dihydroxyoctahydro-2H-chromen-2-yl)pyridin-3-yl)-5-fluoropicolinamide] |
| 0.012 µM | > 10 µM | 0.228 µM | 2.35 µM | 0.084 µM | – | O=C(Nc1cnccc1[C@@H]1C[C@H](O)CCO1)c1csc(-c2c(F)cccc2F)n1 [Example 130, 2-(2,6-difluorophenyl)-N-(4-((2S,4R)-4-hydroxytetrahydro-2H-pyran-2-yl)pyridin-3-yl)thiazole-4-carboxamide] |
| 0.001 µM | 9.7 µM | 0.01 µM | 0.08 µM | 0.005 µM | – | CC1(C)O[C@@H](c2ccncc2NC(=O)c2csc(-c3c(F)cccc3F)n2)C[C@H](O)[C@@H]1O [Example 88, 2-(2,6-difluorophenyl)-N-(4-((2R,4S,5S)-4,5-dihydroxy-6,6-dimethyltetrahydro-2H-pyran-2-yl)pyridin-3-yl)thiazole-4-carboxamide] |
| 0.002 µM | > 10 µM | 1.45 µM | 0.017 µM | 0.003 µM | – | O=C(Nc1cnccc1C1=C[C@@H](O)[C@H](O)[C@@H](CO)O1)c1ccc(F)c(-c2c(F)cccc2F)n1 [Example 79, 6-(2,6-difluorophenyl)-N-(4-((2R,3S,4R)-3,4-dihydroxy-2-(hydroxymethyl)-3,4-dihydro-2H-pyran-6-yl)pyridin-3-yl)-5-fluoropicolinamide] |
| 0.001 µM | 2.4 µM | 0.088 µM | 0.006 µM | 0.002 µM | – | CC1(C)O[C@@H](c2ccncc2NC(=O)c2ccc(F)c(-c3c(F)cccc3F)n2)C[C@H](O)[C@@H]1O [Example 89, 6-(2,6-difluorophenyl)-N-(4-((2R,4S,5S)-4,5-dihydroxy-6,6-dimethyltetrahydro-2H-pyran-2-yl)pyridin-3-yl)-5-fluoropicolinamide] |
| 0.181 µM | > 10 µM | 3.36 µM | 0.72 µM | 0.094 µM | – | NC(=O)[C@H]1O[C@@H](c2ccncc2NC(=O)c2ccc(F)c(-c3c(F)cccc3F)n2)C[C@@H](O)[C@@H]1O [Example 141, N-(4-((2R,4R,5S,6S)-6-carbamoyl-4,5-dihydroxytetrahydro-2H-pyran-2-yl)pyridin-3-yl)-6-(2,6-difluorophenyl)-5-fluoropicolinamide] |
| 1.08 µM | > 10 µM | > 25 µM | 6.6 µM | 0.89 µM | – | NC(=O)C[C@H]1O[C@@H](c2ccncc2NC(=O)c2ccc(F)c(-c3c(F)cccc3F)n2)C[C@@H](O)[C@@H]1O [Example 142, N-(4-((2R,4R,5S,6R)-6-(2-amino-2-oxoethyl)-4,5-dihydroxytetrahydro-2H-pyran-2-yl)pyridin-3-yl)-6-(2,6-difluorophenyl)-5-fluoropicolinamide] |
| 0.0254 µM | > 10 µM | 0.0219 µM | 0.532 µM | 0.0424 µM | – | CC[C@]1(O)[C@H](O)C[C@H](c2ccncc2NC(=O)c2nc(-c3cnn(C)c3C)ccc2N)O[C@@H]1C [Example 156, 3-amino-6-(1,5-dimethyl-1H-pyrazol-4-yl)-N-(4-((2R,4R,5S,6R)-5-ethyl-4,5-dihydroxy-6-methyltetrahydro-2H-pyran-2-yl)pyridin-3-yl)picolinamide] |
| 0.002 µM | > 10 µM | 0.027 µM | 0.321 µM | 0.015 µM | – | O=C(Nc1cnccc1[C@@H]1C[C@H](O)CC2(CC2)O1)c1csc(-c2c(F)cccc2F)n1 [Example 62, 2-(2,6-difluorophenyl)-N-(4-((5S,7S)-7-hydroxy-4-oxaspiro[2.5]octan-5-yl)pyridin-3-yl)thiazole-4-carboxamide] |
| 0.001 µM | 7.2 µM | 0.629 µM | 0.011 µM | 0.002 µM | – | C[C@H]1O[C@@H](c2ccncc2NC(=O)c2ccc(F)c(-c3c(F)cccc3F)n2)C[C@@H](O)[C@@H]1O [Example 119, 6-(2,6-difluorophenyl)-N-(4-((2R,4R,5S,6R)-4,5-dihydroxy-6-methyltetrahydro-2H-pyran-2-yl)pyridin-3-yl)-5-fluoropicolinamide] |
| 0.001 µM | 9.9 µM | 0.017 µM | 0.065 µM | 0.007 µM | – | CC[C@H]1O[C@@H](c2ccncc2NC(=O)c2csc(-c3c(F)cccc3F)n2)C[C@@H](O)[C@@H]1O [Example 41, 2-(2,6-difluorophenyl)-N-(4-((2R,4R,5S,6R)-6-ethyl-4,5-dihydroxytetrahydro-2H-pyran-2-yl)pyridin-3-yl)thiazole-4-carboxamide] |
